Laboratory results as given in US10603279B2, “Compositions of lopinavir” (The University of Liverpool, priority 2011, dated 2020).

Legend:
[1] = ATP cell viability assay (CellTiter-Glo) cytotoxicity; format: cell-based; details: human, 70% lopinavir loaded, 24 hours incubation
Excerpt: (§1) HepG2 (hepatic) and Caco-2 (intestinal) cells were purchased from American Type Tissue Culture (ATCC; USA) and maintained in Dulbecco's modified eagle's medium (DMEM; Sigma; Dorest, Uk) supplemented with 10% fetal bovine serum (FBS; Bio-Whittaker, Berkshire, Uk) for HepG2 and 15% FBS for Caco-2. CEM (lymphocyte) and THP-1 (monocyte) cells were purchased from European Collection of Cell Culture (ECACC; Porton Down, Uk) and grown in RPMI-1640 (Sigma; Dorest, Uk) supplemented with 10% FBS. All cell lines were incubated at 37° C. and 5% CO2 and for adherent cells (HepG2 and Caco-2) were routinely sub-cultured every 4 days when 95% confluent. Suspension cells (CEM and THP-1) were routinely sub-cultured when a density of 1×10^6 cells/ml was achieved. Cell count and viability was determined by Trypan Blue exclusion assay.
(§2) HepG2, Caco-2, THP-1, CEM and A-THP-1 cells were separately seeded at a density of 2.5×10^4/100 μl in their appropriate media into each well of a 96 well plate (Nunclon™, Denmark) and incubated for 24 hours at 37° C. and 5% CO2. Media was then aspirated and replaced with media containing 0.1, 1, 10, 100, 500 or 1000 μM, calculated from molarity of lopinavir (145 samples), of each lopinavir dispersion and incubated for a further 24 hours. The same procedure was followed for each individual excipient (23 samples) with concentrations range of 1 μM to 1M.
Prior to starting viability assays, all reagents were made fresh and in accordance to manufacturer's instructions and allowed to equilibrate to room temperature immediately before use. After 24 hours incubation, 96 well plates were removed from the incubator and the plate and its contents allowed too equilibrate to room temperature for approximately 30 minutes. After 30 minutes, 80 μl of media was aspirated from each individual well and 20 μl CellTiter-Glo® Reagent (Promega, UK) was added to the remaining media and cells. The contents were then mixed for 2 minutes on an orbital shaker to induce cell lysis. The plate was then further incubated at room temperature for 10 minutes to stabilise luminescent signal. Luminescence was then measured using a Tecan Genios plate reader (Tecan; Austria).

[2] = target: recombinant HIV-1 protease (UniProt P04585); assay: Inhibition of recombinant HIV-1 protease; format: biochemical; details: 70% loaded; cell-free assay; read-out: IC50 against recombinant HIV protease
Experimental: HIV-1 protease inhibition screening was conducted as per manufacturers' instructions (Roche Diagnostics GmbH; Germany). […] The entire sample (60 μl) was then transferred into microplate modules and incubated for a further 60 minutes at 37° C. The samples were then aspirated and washed ×5 with 250 μl of wash buffer. After the final aspiration, 200 μl of reconstituted anti-digoxigenin-peroxidase (Anti-DIG-POD) polyclonal antibody (200 mU/ml final concentration) was added to all wells and the plate returned to the incubator for a further 60 minutes at 37° C. The samples were aspirated and washed ×5 with wash buffer. Finally, after the final wash buffer was aspirated, 200 μl of ABTS substrate was added to each well and the plate incubated at room temperature for 15 minutes. Absorbance was then measured at 405 nm using FLUOstar Omega microplate reader (BMG Labtech, Uk).

[3] = ATP cell viability assay (CellTiter-Glo) cytotoxicity; format: cell-based; details: human, A-THP-1 (PMA-activated THP-1, macrophage like) cells, 70% lopinavir loaded, 24 hours incubation
Excerpt: as §1, with “assay. […]” for “assay.”
as §2, with “The same procedure was followed for each individual excipient (23 samples) with concentrations range of 1 μM to 1M.” left out

[4] = test system: HIVIIIB; assay: Inhibition of cultured HIV-IIIB in MT4 cells (MTT assay); format: cell-based, HIVIIIB in human T-cell line MT4; details: Human immunodeficiency virus 1, 120 h, 70% loaded, 5 days, read-out: IC50 (Table 10, activity against cultured HIV virus)
Experimental: HIVIIIB and the human T-cell line, MT4, were supplied by the National Institute for Biological Standards and Control (NIBSC), the Centre for AIDS Reagents (CFAR: Hertfordshire, Uk). MT4 cells were grown and routinely maintained in RPMI-1640 (Sigma; Dorest, Uk) supplemented with 10% fetal bovine serum (FBS; Bio-Whittaker, Berkshire, Uk) at 37° C. and 5% CO2 and sub-cultured every 3 days. Cell counts and viability was determined by Trypan Blue exclusion using a disposable plastic haemocytometer (Labtech International Ltd, UK). HIVIIIB was propagated by passage through MT4 cells in RPMI-1640 and 10% FBS for 12 days and a subsequent multiplicity of infection (MOI) was determined by MTT assay.
MT4 cells were dispensed into 50 ml falcon tubes and centrifuged at 2000 rpm and 4° C. for 5 minutes. The supernantant was aspirated and the resulting pellet resuspended to a cell density of 1×10^5/ml in RPMI 1640 supplemented with 10% FBS and 1 ml of viral isolate (M.O.I 0.001). After further centrifugation for 5 minutes at 2000 rpm, the MT4/HIVIIIB pellet was incubated at 37° C. and 5% CO2 for 2 hours. […]
Following incubation for 5 days of MT4/HIVIIIB with nano formulated LOPINAVIR at 37° C. and 5% CO2. […] Absorbance was read at 570 nm on a plate reader (Tecan Magellan, Austria).

Cc1cccc(C)c1OCC(=O)N[C@@H](Cc1ccccc1)[C@@H](O)C[C@H](Cc1ccccc1)NC(=O)[C@H](C(C)C)N1CCCNC1=O [Aqueous solution, lopinavir]
IC50 at 24 h ([1]; CEM (lymphocyte) cells): 100 µM
IC50 at 24 h ([1]; Caco-2 (intestinal) cells): 52.5 µM
IC50 at 24 h ([1]; HepG2 (hepatic) cells): 35.8 µM
IC50 at 24 h ([1]; THP-1 (monocyte) cells): 28.3 µM
IC50 [2]: 0.032 µM
IC50 at 24 h [3]: 84.3 µM
IC50 [4]: 0.056 µM
